melting point	Structure (SMILES)
188 to 245 °C (dec.)	Cl.O=C(Nc1cnccc1OCCN1CCCC1)c1c[nH]c2c1C(=O)CCC2
297 to 299 °C	CC1CC(=O)c2c(C(=O)Nc3ccc4c(c3)OCO4)c[nH]c2C1 (centres unmarked) [Compound 41, N-(1,3-Benzodioxol-5-yl)-4-oxo-6-methyl-4,5,6,7-tetrahydro-1H-indole-3-carboxamide]
293 °C	Cl.O=C(Nc1cnccc1OCc1ccncc1)c1c[nH]c2c1C(=O)CCC2
208 to 211 °C	Cl.O=C(Nc1cnccc1OCCN1CCCCC1)c1c[nH]c2c1C(=O)CCC2
210 to 212 °C	O=C(Nc1ccc2c(c1)OCO2)c1c[nH]c2c1C(=O)CCCC2 [Compound 39, N-(1,3-Benzodioxol-5-yl)-4-oxo-1,4,5,6,7,8-hexahydro-cyclohepta[b]pyrrole-3-carboxamide]
260 to 262 °C	CC1CC(=O)c2c(C(=O)Nc3ccc(CO)cc3)c[nH]c2C1 (centres unmarked) [Compound 28, N-[4-(Hydroxymethyl)phenyl]-4-oxo-6-methyl-4,5,6,7-tetrahydro-1H-indole-3-carboxamide]
210 °C	CCCNCCOc1ccncc1NC(=O)c1c[nH]c2c1C(=O)CCCC2.Cl
155 to 157 °C	CC1CC(=O)c2c(C(=O)Nc3ccc4c(c3)OC(C)(C)O4)c[nH]c2C1 (centres unmarked) [Compound 40, N-(2,2-Dimethyl-1,3-benzodioxol-5-yl)-4-oxo-6-methyl-4,5,6,7-tetrahydro-1H-indole-3-carboxamide]
165 to 167 °C	CCN(CC)CCN(CC)C(=O)COc1ccc(NC(=O)c2c[nH]c3c2C(=O)CCC3)cc1
203 °C	CN(C)CCOc1ccc(NC(=O)c2c[nH]c3c2C(=O)CCC3)cc1F [Compound 89, N-[3-Fluoro-4-(2-dimethylaminoethoxy)phenyl]-4-oxo-4,5,6,7-tetrahydro-1H-indole-3-carboxamide]
164 to 166 °C	CC(C)NCc1ccc(NC(=O)c2c[nH]c3c2C(=O)CCC3)cc1 [Compound 22, N-[4-(Isopropylaminomethyl)phenyl]-4-oxo-4,5,6,7-tetrahydro-1H-indole-3-carboxamide]
227 to 228 °C	CCNCCOc1ccc(NC(=O)c2c[nH]c3c2C(=O)CCCC3)cc1.Cl
245 to 247 °C	CC1(C)CC(=O)c2c(C(=O)Nc3ccc(CO)cc3)c[nH]c2C1 [Compound 31, N-[4-(Hydroxymethyl)phenyl]-4-oxo-6,6-dimethyl-4,5,6,7-tetrahydro-1H-indole-3-carboxamide]
290 to 292 °C	CC1CC(=O)c2c(C(=O)Nc3ccc4c(c3)OCCO4)c[nH]c2C1 (centres unmarked) [Compound 42, N-(2,3-Dihydro-1,4-benzodioxin-6-yl)-4-oxo-6-methyl-4,5,6,7-tetrahydro-1H-indole-3-carboxamide]
268 to 270 °C	CC1(C)CC(=O)c2c(C(=O)Nc3ccc(OCCO)cc3)c[nH]c2C1 [Compound 30, N-[4-(2-Hydroxyethoxy)phenyl]-4-oxo-6,6-dimethyl-4,5,6,7-tetrahydro-1H-indole-3-carboxamide]
246 to 248 °C	O=C(O)COc1ccc(NC(=O)c2c[nH]c3c2C(=O)CCC3)cc1F [Compound 223, N-[3-Fluoro-4-(2-hydroxy-2-oxoethoxy)phenyl]-4-oxo-4,5,6,7-tetrahydro-1H-indole-3-carboxamide]
177 to 178 °C	CCCNCCOc1ccncc1NC(=O)c1c[nH]c2c1C(=O)CCC2.Cl
245 to 247 °C	O=C(Nc1ccc(OCCO)cc1)c1c[nH]c2c1C(=O)CCC2 [Compound 16, N-[4-(Hydroxyethoxy)phenyl]-4-oxo-4,5,6,7-tetrahydro-1H-indole-3-carboxamide]
193 to 196 °C	CCN(CC)C(=O)COc1ccc(NC(=O)c2c[nH]c3c2C(=O)CCC3)cc1F [Compound 225, N-[3-Fluoro-4-(2-diethylamino-2-oxoethoxy)phenyl]-4-oxo-4,5,6,7-tetrahydro-1H-indole-3-carboxamide]
194 to 195 °C	CCNCc1ccc(NC(=O)c2c[nH]c3c2C(=O)CCC3)cc1 [Compound 21, N-[4-(Ethylaminomethyl)phenyl]-4-oxo-4,5,6,7-tetrahydro-1H-indole-3-carboxamide]
284 to 286 °C	CC(C)NCCOc1ccc(NC(=O)c2c[nH]c3c2C(=O)CCC3)cc1 [Compound 69, N-[4-(2-Isopropylaminoethoxy)phenyl]-4-oxo-4,5,6,7-tetrahydro-1H-indole-3-carboxamide]
217 to 219 °C	CNCc1ccc(NC(=O)c2c[nH]c3c2C(=O)CCC3)cc1 [Compound 19, N-[4-(Methylaminomethyl)phenyl]-4-oxo-4,5,6,7-tetrahydro-1H-indole-3-carboxamide]
274 to 278 °C	CC(C)(C)NCCOc1ccncc1NC(=O)c1c[nH]c2c1C(=O)CCC2 [Compound 112, N-[4-(2-t-Butylaminoethoxy)pyrid-3-yl]-4-oxo-4,5,6,7-tetrahydro-1H-indole-3-carboxamide]
147 to 149 °C	CC(C)CNCCOc1ccc(NC(=O)c2c[nH]c3c2C(=O)CCC3)cc1F [Compound 77, N-[3-Fluoro-4-(2-Isobutylaminoethoxy)phenyl]-4-oxo-4,5,6,7-tetrahydro-1H-indole-3-carboxamide]

melting point	Structure (SMILES)
217 to 219 °C	CNCc1ccc(NC(=O)c2c[nH]c3c2C(=O)CC(C)C3)cc1 (centres unmarked) [Compound 27, N-[4-(Methylaminomethyl)phenyl]-4-oxo-6-methyl-4,5,6,7-tetrahydro-1H-indole-3-carboxamide]
290 to 292 °C	CC(C)(C)NCCOc1ccc(NC(=O)c2c[nH]c3c2C(=O)CCC3)cc1 [Compound 81, N-[4-(2-t-Butylaminoethoxy)phenyl]-4-oxo-4,5,6,7-tetrahydro-1H-indole-3-carboxamide]
281 to 285 °C	O=C(Nc1ccc(OCCC2CCCCN2)cc1)c1c[nH]c2c1C(=O)CCC2 (centres unmarked) [Compound 94, N-[4-(2-Piperidin-2-ylethoxy)phenyl]-4-oxo-4,5,6,7-tetrahydro-1H-indole-3-carboxamide]
130 to 133 °C	CCCNCCOc1ccc(NC(=O)c2c[nH]c3c2C(=O)CCC3)cc1 [Compound 64, N-[4-(2-n-Propylaminoethoxy)phenyl]-4-oxo-4,5,6,7-tetrahydro-1H-indole-3-carboxamide]
241 to 243 °C	O=C(Nc1cnccc1OCc1cccnc1)c1c[nH]c2c1C(=O)CCCC2 [Compound 194, N-[4-(Pyrid-3-ylmethoxy)pyrid-3-yl]-4-oxo-1,4,5,6,7,8-hexahydro-cyclohepta[b]pyrrole-3-carboxamide]
230 to 232 °C	CNCc1ccc(NC(=O)c2c[nH]c3c2C(=O)CC(C)(C)C3)cc1 [Compound 32, N-[4-(Methylaminomethyl)phenyl]-4-oxo-6,6-dimethyl-4,5,6,7-tetrahydro-1H-indole-3-carboxamide]
140 to 141 °C	CCNCCOc1ccc(NC(=O)c2c[nH]c3c2C(=O)CCC3)cc1 [Compound 62, N-[4-(2-Ethylaminoethoxy)phenyl]-4-oxo-4,5,6,7-tetrahydro-1H-indole-3-carboxamide]
164 to 165 °C	COCc1ccc(NC(=O)c2c[nH]c3c2C(=O)CCC3)cc1 [Compound 18, N-[4-(Methoxymethyl)phenyl]-4-oxo-4,5,6,7-tetrahydro-1H-indole-3-carboxamide]
187 to 190 °C	CCCCNCCOc1ccc(NC(=O)c2c[nH]c3c2C(=O)CCC3)cc1.Cl
165 to 167 °C	O=C(Nc1ccc(OC[C@@H]2CCCN2)cc1)c1c[nH]c2c1C(=O)CCC2 [Compound 85, N-{4-[(S)-Pyrrolidin-2-ylmethoxy]phenyl}-4-oxo-4,5,6,7-tetrahydro-1H-indole-3-carboxamide]
247 to 250 °C	O=C(Nc1ccc(OCCNCC2CC2)cc1F)c1c[nH]c2c1C(=O)CCC2 [Compound 72, N-[2-Fluoro-4-(2-Cyclopropylmethylaminoethoxy)phenyl]-4-oxo-4,5,6,7-tetrahydro-1H-indole-3-carboxamide]
235 to 240 °C (dec.)	Cl.O=C(Nc1cnccc1OCc1ccncc1)c1c[nH]c2c1C(=O)CCCC2
209 to 211 °C	CN1CCC(COc2ccncc2NC(=O)c2c[nH]c3c2C(=O)CCC3)C1 (centres unmarked) [Compound 131, N-{4-[(1-Methyl-pyrrolidin-3-yl)methoxy]pyrid-3-yl}-4-oxo-4,5,6,7-tetrahydro-1H-indole-3-carboxamide]
143 to 145 °C	Cl.O=C(Nc1cnccc1OCCNCc1ccccc1)c1c[nH]c2c1C(=O)CCC2
276 to 277 °C	Cl.O=C(Nc1cnccc1OCc1cccnc1)c1c[nH]c2c1C(=O)CCC2
251 to 252 °C	CC1(C)CCc2[nH]cc(C(=O)Nc3ccc4c(c3)OCOC4)c2C1=O [Compound 38, N-(4H-1,3-Benzodioxin-7-yl)-4-oxo-5,5-dimethyl-4,5,6,7-tetrahydro-1H-indole-3-carboxamide]
283 to 286 °C	O=C(Nc1ccc2c(c1)CCN2)c1c[nH]c2c1C(=O)CCC2 [Compound 35, N-(2,3-Dihydro-1H-indol-5-yl)4-oxo-4,5,6,7-tetrahydro-1H-indole-3-carboxamide]
216 °C	O=C(Nc1ccc2c(c1)NCCO2)c1c[nH]c2c1C(=O)CCC2 [Compound 33, N-(3,4-Dihydro-2H-1,4-benzoxazin-6-yl)-4-oxo-4,5,6,7-tetrahydro-1H-indole-3-carboxamide]
160 to 162 °C	Cl.O=C(Nc1cnccc1OCCN1CCCC1)c1c[nH]c2c1C(=O)CCCC2
144 to 149 °C	O=C(Nc1ccc(OCCNC2C3CC4CC(C3)CC2C4)cc1)c1c[nH]c2c1C(=O)CCC2 (centres unmarked) [Compound 83, N-[4-(2-adamant-2-ylaminoethoxy)phenyl]-4-oxo-4,5,6,7-tetrahydro-1H-indole-3-carboxamide]
178 to 180 °C	CCNCCOc1ccncc1NC(=O)c1c[nH]c2c1C(=O)CCC2.Cl
234 to 236 °C	CC1(C)CC(=O)c2c(C(=O)Nc3ccc4c(c3)OCOC4)c[nH]c2C1 [Compound 45, N-(4H-1,3-Benzodioxin-7-yl)-4-oxo-6,6-dimethyl-4,5,6,7-tetrahydro-1H-indole-3-carboxamide]
164 to 168 °C	O=C(Nc1ccc(OCCN2CCCC2)cc1)c1c[nH]c2c1C(=O)CCC2 [Compound 90, N-[4-(2-Pyrrolidin-1-ylethoxy)phenyl]-4-oxo-4,5,6,7-tetrahydro-1H-indole-3-carboxamide]

— patent US6515140B2, “Fused pyrrolecarboxamides; a new class of GABA brain receptor ligands” (Neurogen Corporation, priority 1996, dated 2003)
